From patent US12503438B2, “Compounds for the treatment of kinase-dependent disorders” (Exelixis, Inc., priority 2019, dated 2025) come the findings set out here.

For one assay, the target named is T1, Mer (Homo sapiens, UniProt Q12866).
T1 construct: host or cells: 293A cells (Thermo Fisher #R70507)
T1 sequence (Q12866 21-999): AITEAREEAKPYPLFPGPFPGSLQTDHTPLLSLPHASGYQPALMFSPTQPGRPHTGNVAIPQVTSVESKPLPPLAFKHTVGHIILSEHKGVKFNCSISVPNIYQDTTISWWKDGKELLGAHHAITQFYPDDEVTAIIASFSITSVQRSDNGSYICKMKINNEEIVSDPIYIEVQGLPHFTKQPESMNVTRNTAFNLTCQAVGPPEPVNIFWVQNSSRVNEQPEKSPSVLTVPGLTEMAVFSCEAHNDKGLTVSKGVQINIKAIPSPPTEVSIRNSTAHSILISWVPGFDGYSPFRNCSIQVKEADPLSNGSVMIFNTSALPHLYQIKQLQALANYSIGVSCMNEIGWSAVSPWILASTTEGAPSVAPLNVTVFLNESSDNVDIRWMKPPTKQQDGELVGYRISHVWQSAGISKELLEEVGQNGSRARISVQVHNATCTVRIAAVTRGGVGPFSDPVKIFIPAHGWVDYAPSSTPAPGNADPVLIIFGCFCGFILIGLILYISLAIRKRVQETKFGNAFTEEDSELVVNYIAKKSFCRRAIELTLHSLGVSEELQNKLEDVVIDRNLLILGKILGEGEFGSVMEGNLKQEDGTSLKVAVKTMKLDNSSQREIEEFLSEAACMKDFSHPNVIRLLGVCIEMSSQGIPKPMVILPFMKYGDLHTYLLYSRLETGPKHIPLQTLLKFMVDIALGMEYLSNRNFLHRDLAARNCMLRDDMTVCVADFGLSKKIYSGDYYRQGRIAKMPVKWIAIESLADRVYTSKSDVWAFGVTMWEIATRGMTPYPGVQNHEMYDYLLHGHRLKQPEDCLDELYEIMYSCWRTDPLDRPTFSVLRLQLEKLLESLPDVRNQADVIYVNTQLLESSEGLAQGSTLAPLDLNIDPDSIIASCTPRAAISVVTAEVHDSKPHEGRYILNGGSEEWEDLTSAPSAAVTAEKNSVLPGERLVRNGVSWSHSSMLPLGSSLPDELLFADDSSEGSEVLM
As to the kind of experiment: Mer autophosphorylation ELISA in transient transfected 293A cells. The class given is cell-based. As to conditions: cellular activity; MERTK-transfected 293A cells, phospho-Mer ELISA. In outline: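 293A cells transiently transfected with human MERTK DNA, then treated 1 h with 8-point compound dilutions in serum-free medium (0.3% DMSO). Phospho-Mer in lysates quantified by sandwich ELISA against phospho-Mer standard; normalised to DMSO (100%) and reference inhibitor (0%), IC50 from 4-parameter logistic fit.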
A general note: An ELISA detects its analyte on a solid surface through an enzyme-linked reagent.

The target in another assay is KDR (Homo sapiens, UniProt P35968). As to the kind of experiment: KDR autophosphorylation ELISA in HUVEC cells. The following applies: cellular activity, VEGF165-stimulated, phospho-KDR ELISA. The class given is cell-based. On the set-up: endogenous in cells; host or cells: HUVEC (Lonza #C2519A). The method in brief:
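HUVEC, 24 h serum-free starvation; cpd 8-pt dilution, 0.3% DMSO final, 1 h; VEGF165 100 ng/mL, 5 min; cold lysis; phospho-KDR ELISA; IC50, 4PL.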

Chain of KDR (P35968 20-1356): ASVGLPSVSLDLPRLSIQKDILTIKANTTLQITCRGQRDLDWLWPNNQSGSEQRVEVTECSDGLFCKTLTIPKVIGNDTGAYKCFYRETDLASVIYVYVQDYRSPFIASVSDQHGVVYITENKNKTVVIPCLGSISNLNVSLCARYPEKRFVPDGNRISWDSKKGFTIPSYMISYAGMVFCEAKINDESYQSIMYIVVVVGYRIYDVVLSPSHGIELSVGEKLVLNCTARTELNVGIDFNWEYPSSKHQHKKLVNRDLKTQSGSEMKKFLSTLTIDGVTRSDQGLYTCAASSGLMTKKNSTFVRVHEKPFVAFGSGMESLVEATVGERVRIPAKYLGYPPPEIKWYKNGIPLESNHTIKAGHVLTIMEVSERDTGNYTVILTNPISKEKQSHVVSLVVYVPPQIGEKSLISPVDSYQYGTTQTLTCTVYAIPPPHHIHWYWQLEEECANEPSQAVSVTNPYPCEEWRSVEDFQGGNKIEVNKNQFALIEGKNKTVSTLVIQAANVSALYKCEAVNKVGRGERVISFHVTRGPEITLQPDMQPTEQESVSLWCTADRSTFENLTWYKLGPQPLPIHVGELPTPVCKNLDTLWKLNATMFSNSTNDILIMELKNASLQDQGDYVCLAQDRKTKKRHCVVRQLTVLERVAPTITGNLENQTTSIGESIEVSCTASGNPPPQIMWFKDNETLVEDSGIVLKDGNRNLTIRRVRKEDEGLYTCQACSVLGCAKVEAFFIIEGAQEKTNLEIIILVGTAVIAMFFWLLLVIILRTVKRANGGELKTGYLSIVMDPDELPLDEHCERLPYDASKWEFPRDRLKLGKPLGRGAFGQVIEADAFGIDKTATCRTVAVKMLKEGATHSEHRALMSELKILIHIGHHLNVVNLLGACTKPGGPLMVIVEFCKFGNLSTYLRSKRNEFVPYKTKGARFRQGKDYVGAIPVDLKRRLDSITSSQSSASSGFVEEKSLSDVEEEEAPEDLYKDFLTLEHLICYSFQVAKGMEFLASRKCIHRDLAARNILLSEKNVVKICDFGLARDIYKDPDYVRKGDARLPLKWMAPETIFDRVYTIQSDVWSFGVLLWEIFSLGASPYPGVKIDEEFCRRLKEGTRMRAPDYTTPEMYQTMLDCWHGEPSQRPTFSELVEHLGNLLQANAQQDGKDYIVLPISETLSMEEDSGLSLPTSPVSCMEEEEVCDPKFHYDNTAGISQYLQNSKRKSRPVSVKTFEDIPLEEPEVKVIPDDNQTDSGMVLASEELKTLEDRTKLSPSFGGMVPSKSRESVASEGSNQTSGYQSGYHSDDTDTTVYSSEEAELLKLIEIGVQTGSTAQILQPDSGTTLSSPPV

`Cc1cc2c(Oc3ccc(NC(=O)C4(C(=O)Nc5ccc(F)cc5)CC4)cc3)ccnc2cc1-c1cc[nH]n1` [Compound 107, 1-N′-(4-Fluorophenyl)-1-N-[4-[6-methyl-7-(1H-pyrazol-3-yl)quinolin-4-yl]oxyphenyl]cyclopropane-1,1-dicarboxamide]: the IC50 on Mer and at KDR was 10 to 100 nM throughout.
For the compound `Nc1cc(-c2ccc3c(Oc4ccc(NC(=O)C5(C(=O)Nc6ccc(F)cc6)CC5)cc4)ccnc3c2)ccn1` [Compound 97, 1-N-[4-[7-(2-Aminopyridin-4-yl)quinolin-4-yl]oxyphenyl]-1-N′-(4-fluorophenyl)cyclopropane-1,1-dicarboxamide], the IC50 is not above 10 nM against Mer and 10 to 100 nM against KDR.
With `Cc1cnn(-c2ccc3c(Oc4ccc(NC(=O)C5(C(=O)Nc6ccc(F)cc6)CC5)cc4)ccnc3c2)c1` [Compound 96, 1-N′-(4-Fluorophenyl)-1-N-[4-[7-(4-methylpyrazol-1-yl)quinolin-4-yl]oxyphenyl]cyclopropane-1,1-dicarboxamide], the concentration for half-maximal inhibition (IC50) at Mer and against KDR was 10 to 100 nM in each case.
In the case of `Cc1ccn(-c2ccc3c(Oc4ccc(NC(=O)C5(C(=O)Nc6ccc(F)cc6)CC5)cc4)ccnc3c2)n1` [Compound 91, 1-N′-(4-Fluorophenyl)-1-N-[4-[7-(3-methylpyrazol-1-yl)quinolin-4-yl]oxyphenyl]cyclopropane-1,1-dicarboxamide], the IC50 on Mer and against KDR was 100 to 300 nM in each case.
Turning to `Cc1cc(-c2ccc3c(Oc4ccc(NC(=O)C5(C(=O)Nc6ccc(F)cc6)CC5)cc4)ccnc3c2)n[nH]1` [Compound 99, 1-N′-(4-Fluorophenyl)-1-N-[4-[7-(5-methyl-1H-pyrazol-3-yl)quinolin-4-yl]oxyphenyl]cyclopropane-1,1-dicarboxamide], the IC50 on Mer is 10 to 100 nM; against KDR, not above 10 nM.
The like results for `Cc1cc2c(Oc3ccc(NC(=O)C4(C(=O)Nc5ccc(F)cc5)CC4)cc3)ccnc2cc1-c1ccn(C)n1` [Compound 108, 1-N′-(4-Fluorophenyl)-1-N-[4-[6-methyl-7-(1-methylpyrazol-3-yl)quinolin-4-yl]oxyphenyl]cyclopropane-1,1-dicarboxamide] were, in that order, 100 to 300 nM and 10 to 100 nM.
For `O=C(Nc1ccc(F)cc1)C1(C(=O)Nc2ccc(Oc3ccnc4cc(C5=CCOC5)ccc34)cc2)CC1` [Compound 95, 1-N-[4-[7-(2,5-Dihydrofuran-3-yl)quinolin-4-yl]oxyphenyl]-1-N′-(4-fluorophenyl)cyclopropane-1,1-dicarboxamide], the half-maximal inhibitory concentration (IC50) is 10 to 100 nM on Mer and not above 10 nM against KDR.
As to `O=C(Nc1ccc(F)cc1)C1(C(=O)Nc2ccc(Oc3ccnc4cc(-c5cc6ccccn6n5)ccc34)cc2)CC1` [Compound 104, 1-N′-(4-Fluorophenyl)-1-N-[4-(7-pyrazolo[1,5-a]pyridin-2-ylquinolin-4-yl)oxyphenyl]cyclopropane-1,1-dicarboxamide], the IC50 against Mer is 100 to 300 nM; on KDR, 10 to 100 nM.
Taken in the same sequence, the figures for `Cc1cn(-c2ccc3c(Oc4ccc(NC(=O)C5(C(=O)Nc6ccc(F)cc6)CC5)cc4)ccnc3c2)cn1` [Compound 87, 1-N′-(4-Fluorophenyl)-1-N-[4-[7-(4-methylimidazol-1-yl)quinolin-4-yl]oxyphenyl]cyclopropane-1,1-dicarboxamide] were 10 to 100 nM and not above 10 nM.
The like results for `Nc1n[nH]cc1-c1ccc2c(Oc3ccc(NC(=O)C4(C(=O)Nc5ccc(F)cc5)CC4)cc3)ccnc2c1` [Compound 90, 1-N-[4-[7-(3-Amino-1H-pyrazol-4-yl)quinolin-4-yl]oxyphenyl]-1-N′-(4-fluorophenyl)cyclopropane-1,1-dicarboxamide] were, in that order, 10 to 100 nM and 10 to 100 nM.
Taken in the same sequence, the figures for `O=C(Nc1ccc(F)cc1)C1(C(=O)Nc2ccc(Oc3ccnc4cc(-c5ccn(CF)n5)ccc34)cc2)CC1` [Compound 102, 1-N-[4-[7-[1-(Fluoromethyl)pyrazol-3-yl]quinolin-4-yl]oxyphenyl]-1-N′-(4-fluorophenyl)cyclopropane-1,1-dicarboxamide] were 10 to 100 nM and not above 10 nM.
In the case of `O=C(Nc1ccc(F)cc1)C1(C(=O)Nc2ccc(Oc3ccnc4cc(-c5cnn(CF)c5)ccc34)cc2)CC1` [Compound 94, 1-N-[4-[7-[1-(Fluoromethyl)pyrazol-4-yl]quinolin-4-yl]oxyphenyl]-1-N′-(4-fluorophenyl)cyclopropane-1,1-dicarboxamide], the IC50 against Mer was 10 to 100 nM; on KDR, not above 10 nM.
Consider `CC(=O)N1CCC(c2ccc3c(Oc4ccc(NC(=O)C5(C(=O)Nc6ccc(F)cc6)CC5)cc4)ccnc3c2)C1` (stereo not drawn) [Compound 92, 1-N-[4-[7-(1-Acetylpyrrolidin-3-yl)quinolin-4-yl]oxyphenyl]-1-N′-(4-fluorophenyl)cyclopropane-1,1-dicarboxamide], for which the IC50 against Mer lay in the range of 10 to 100 nM; against KDR, 100 to 300 nM.
On to `Cc1cc2c(Oc3cc(F)c(NC(=O)C4(C(=O)Nc5ccc(F)cc5)CC4)cc3F)ccnc2cc1-c1cnn(C)c1` [Compound 105, 1-N′-[2,5-Difluoro-4-[6-methyl-7-(1-methylpyrazol-4-yl)quinolin-4-yl]oxyphenyl]-1-N-(4-fluorophenyl)cyclopropane-1,1-dicarboxamide], for which the IC50 at Mer and on KDR was 10 to 100 nM throughout.
As to `O=C(Nc1ccc(F)cc1)C1(C(=O)Nc2ccc(Oc3ccnc4cc(-c5ccccc5)ccc34)cc2)CC1` [Compound 55, 1-N′-(4-Fluorophenyl)-1-N-[4-(7-phenylquinolin-4-yl)oxyphenyl]cyclopropane-1,1-dicarboxamide], the half-maximal inhibitory concentration (IC50) lay in the range of 100 to 300 nM against Mer and 10 to 100 nM against KDR.
For `O=C(Nc1ccc(F)cc1)C1(C(=O)Nc2ccc(Oc3ccnc4cc(-c5ccn(C6CC6)n5)ccc34)cc2)CC1` [Compound 98, 1-N-[4-[7-(1-Cyclopropylpyrazol-3-yl)quinolin-4-yl]oxyphenyl]-1-N′-(4-fluorophenyl)cyclopropane-1,1-dicarboxamide], the concentration for half-maximal inhibition (IC50) against Mer was in the range of 100 to 300 nM; against KDR, 10 to 100 nM.
The like results for `Cc1cc(-c2ccc3c(Oc4ccc(NC(=O)C5(C(=O)Nc6ccc(F)cc6)CC5)cc4)ccnc3c2)nn1C` [Compound 101, 1-N-[4-[7-(1,5-Dimethylpyrazol-3-yl)quinolin-4-yl]oxyphenyl]-1-N′-(4-fluorophenyl)cyclopropane-1,1-dicarboxamide] were, in that order, 10 to 100 nM and 10 to 100 nM.
Taken in the same sequence, the figures for `CS(=O)(=O)N1CCC(c2ccc3c(Oc4ccc(NC(=O)C5(C(=O)Nc6ccc(F)cc6)CC5)cc4)ccnc3c2)C1` (stereo not drawn) [Compound 93, 1-N′-(4-Fluorophenyl)-1-N-[4-[7-(1-methylsulfonylpyrrolidin-3-yl)quinolin-4-yl]oxyphenyl]cyclopropane-1,1-dicarboxamide] were 100 to 300 nM and more than 300 nM.

A word on the IC50: it is the concentration that inhibits the measured activity by half. A lower IC50 goes with higher potency.
